Counter-ions that a name gives are not always drawn.
Target: T1, human V1a receptor (Homo sapiens, UniProt P37288)
T1 construct: expressed in transfected cells; host or cells: HEK293 cells, transiently transfected; membrane preparation
Test: human V1a receptor binding studies (3H-Vasopressin, SPA beads)
Conditions: membranes of HEK293 cells transiently transfected with human V1a receptor, Ki calculated by Cheng-Prussoff equation, read-out: pKi hV1a (converted)
Protocol: The human V1a receptor was cloned by RT-PCR from total human liver RNA. The coding sequence was subcloned in an expression vector after sequencing to confirm the identity of the amplified sequence. […] Cell membranes were prepared from HEK293 cells transiently transfected with the expression vector and grown in 20 liter fermenters with the following protocol.
50 g of cells were resuspended in 30 ml freshly prepared ice cold Lysis buffer (50 mM HEPES, 1 mM EDTA, 10 mM MgCl2 adjusted to pH=7.4+complete cocktail of protease inhibitor (Roche Diagnostics)); homogenized with Polytron for 1 min; and sonicated on ice for 2×2 minutes at 80% intensity (Vibracell sonicator). The preparation was centrifuged 20 min at 500 g at 4° C., the pellet was discarded and the supernatant centrifuged 1 hour at 43,000 g at 4° C. (19,000 rpm). The pellet was resuspended in 12.5 ml Lysis buffer+12.5 ml Sucrose 20% and homogenized using a Polytron for 1-2 min. The protein concentration was determined by the Bradford method and aliquots were stored at −80° C. until use. For binding studies 60 mg Yttrium silicate SPA beads (Amersham) were mixed with an aliquot of membrane in binding buffer (50 mM Tris, 120 mM NaCl, 5 mM KCl, 2 mM CaCl2, 10 mM MgCl2) for 15 minutes with mixing. 50 ul of bead/membrane mixture was then added to each well of a 96 well plate, followed by 50 ul of 4 nM 3H-Vasopressin (American Radiolabeled Chemicals). For total binding measurement 100 ul of binding buffer were added to the respective wells, for non-specific binding 100 ul of 8.4 mM cold vasopressin and for compound testing 100 ul of a serial dilution of each compound in 2% DMSO. The plate was incubated Ih at room temperature, centrifuged 1 min at 1000 g and counted on a Packard Top-Count. Non-specific binding counts were subtracted from each well, and data was normalized to the maximum specific binding set at 100%. To calculate an IC 50 the curve was fitted using a non-linear regression model (XLfit), and the Ki was calculated using the Cheng-Prussoff equation.

T1 sequence (P37288 whole entry): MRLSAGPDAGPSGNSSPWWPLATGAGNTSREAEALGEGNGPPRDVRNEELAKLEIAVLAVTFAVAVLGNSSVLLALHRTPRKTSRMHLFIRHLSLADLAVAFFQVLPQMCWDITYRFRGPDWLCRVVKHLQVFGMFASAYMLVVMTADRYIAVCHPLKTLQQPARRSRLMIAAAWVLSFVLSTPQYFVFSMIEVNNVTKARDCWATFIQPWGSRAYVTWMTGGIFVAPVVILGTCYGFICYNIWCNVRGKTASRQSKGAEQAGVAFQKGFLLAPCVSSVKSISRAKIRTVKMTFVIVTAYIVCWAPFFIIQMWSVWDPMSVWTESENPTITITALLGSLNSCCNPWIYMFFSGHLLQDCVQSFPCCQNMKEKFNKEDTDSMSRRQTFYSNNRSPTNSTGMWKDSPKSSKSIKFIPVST

| Structure (SMILES) | Ki [nM] |
| --- | --- |
| O=C(c1c[nH]c2cc(Cl)ccc12)N1CCC(N2C(=O)Cc3ccccc32)CC1 [Example 1, 1-[1-(6-Chloro-1H-indole-3-carbonyl)-piperidin-4-yl]-1,3-dihydro-indol-2-one] | 8.91 |
| O=C(c1cn(Cc2cc(F)cc(F)c2)c2cc(Cl)ccc12)N1CCC(N2C(=O)Cc3ccccc32)CC1 [Example 2, 1-{1-[6-Chloro-1-(3,5-difluoro-benzyl)-1H-indole-3-carbonyl]-piperidin-4-yl}-1,3-dihydro-indol-2-one] | 2.57 |
| CNC(=O)Cn1cc(C(=O)N2CCC(N3C(=O)Cc4ccccc43)CC2)c2ccc(Cl)cc21 [Example 3, 2-{6-Chloro-3-[4-(2-oxo-2,3-dihydro-indol-1-yl)-piperidine-1-carbonyl]-indol-1-yl}-N-methyl-acetamide] | 1.82 |
| CN(C)C(=O)Cn1cc(C(=O)N2CCC(N3C(=O)Cc4ccccc43)CC2)c2ccc(Cl)cc21 [Example 4, 2-(6-Chloro-3-{[4-(2-oxo-2,3-dihydro-1H-indol-1-yl)piperidin-1-yl]carbonyl}-1H-indol-1-yl)-N,N-dimethylacetamide] | 1.29 |
| CCN(CC)C(=O)Cn1cc(C(=O)N2CCC(N3C(=O)Cc4ccccc43)CC2)c2ccc(Cl)cc21 [Example 5, 2-{6-Chloro-3-[4-(2-oxo-2,3-dihydro-indol-1-yl)-piperidine-1-carbonyl]-indol-1-yl}-N,N-diethyl-acetamide] | 11.7 |
| CS(=O)(=O)NCCn1cc(C(=O)N2CCC(N3C(=O)Cc4ccccc43)CC2)c2ccc(Cl)cc21 [Example 6, N-[2-(6-Chloro-3-{[4-(2-oxo-2,3-dihydro-1H-indol-1-yl)piperidin-1-yl]carbonyl}-1H-indol-1-yl)ethyl]methanesulfonamide] | 3.16 |
| CC(=O)NCCn1cc(C(=O)N2CCC(N3C(=O)Cc4ccccc43)CC2)c2ccc(Cl)cc21 [Example 7, N-[2-(6-Chloro-3-{[4-(2-oxo-2,3-dihydro-1H-indol-1-yl)piperidin-1-yl]carbonyl}-1H-indol-1-yl)ethyl]acetamide] | 11.7 |
| Cc1[nH]c2cc(Cl)ccc2c1C(=O)N1CCC(N2C(=O)Cc3ccccc32)CC1 [Example 8, 1-[1-(6-Chloro-2-methyl-1H-indole-3-carbonyl)-piperidin-4-yl]-1,3-dihydro-indol-2-one] | 12.6 |
| CNC(=O)Cn1cc(C(=O)N2CCC(n3c(=O)oc4ccccc43)CC2)c2ccc(Cl)cc21 [Example 10, 2-{6-Chloro-3-[4-(2-oxo-benzooxazol-3-yl)-piperidine-1-carbonyl]-indol-1-yl}-N-methyl-acetamide] | 6.76 |
| CN(C)C(=O)Cn1cc(C(=O)N2CCC(n3nnc4ccccc43)CC2)c2ccc(Cl)cc21 [Example 13, 2-(3-{[4-(1H-Benzotriazol-1-yl)piperidin-1-yl]carbonyl}-6-chloro-1H-indol-1-yl)-N,N-dimethylacetamide] | 14.1 |
| CNCCn1cc(C(=O)N2CCC(N3C(=O)Cc4ccccc43)CC2)c2ccc(Cl)cc21 [Example 14, 1-{1-[6-Chloro-1-(2-methylamino-ethyl)-1H-indole-3-carbonyl]-piperidin-4-yl}-1,3-dihydro-indol-2-one hydrochloride] | 6.61 |
| CN(C)CCn1cc(C(=O)N2CCC(N3C(=O)Cc4ccccc43)CC2)c2ccc(Cl)cc21 [Example 15, 1-{1-[6-Chloro-1-(2-dimethylamino-ethyl)-1H-indole-3-carbonyl]-piperidin-4-yl}-1,3-dihydro-indol-2-one] | 2.09 |
| CN(C)CCn1cc(C(=O)N2CCC(n3nnc4ccccc43)CC2)c2ccc(Cl)cc21 [Example 17, (4-Benzotriazol-1-yl-piperidin-1-yl)-[6-chloro-1-(2-dimethylamino-ethyl)-1H-indol-3-yl]-methanone] | 19.5 |
| CN1CCn2c(c(C(=O)N3CCC(n4nnc5ccccc54)CC3)c3ccc(Cl)cc32)C1 [Example 18, (4-Benzotriazol-1-yl-piperidin-1-yl)-(7-chloro-2-methyl-1,2,3,4-tetrahydro-pyrazino[1,2-a]indol-10-yl)-methanone] | 20.9 |
